Measured values reported in PubChem BioAssay (NCI).
“And” between values parts separate entries of the source, which are not always exact repeats. Identical values can stand only once.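 48-hour exposure; five concentrations; linearly interpolated endpoints. GI50 = concentration required for 50% inhibition of growth. Definition used: TGI = concentration required for complete inhibition of growth.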

Experiments:
Assay in all cases: NCI tumour cell line growth inhibition, 48 h
[1] = system: A549 NSCLC
[2] = system: DU-145 prostate
[3] = system: HCT-116 colon
[4] = system: HCT-15 colon
[5] = system: HT29 colon
[6] = system: MDA-MB-231 breast
[7] = system: NCI-H522 lung
[8] = system: OVCAR-4 ovarian
[9] = system: UACC-257 melanoma
[10] = system: IGROV1 ovarian

Compound	GI50 [1]	TGI [1]	GI50 [2]	TGI [2]	GI50 [3]	TGI [3]	GI50 [4]	TGI [4]	GI50 [5]	TGI [5]	GI50 [6]	TGI [6]	GI50 [7]	TGI [7]	GI50 [8]	TGI [8]	GI50 [9]	TGI [9]	GI50 [10]	TGI [10]
O=C(COc1cccc(/C=C2\CSc3ccccc3C2=O)c1)Nc1nccs1	5.73 µM	18.3 µM	1940 nM	3.99 µM	1600 nM	2.96 µM	2170 nM	5 µM	1850 nM	3.43 µM	5460 nM	21.4 µM	1550 nM	3.27 µM	3940 nM	19.4 µM	3020 nM	9.77 µM	–	–
COC(=O)c1ccc(NC(=O)Oc2ccc(N(CCCl)CCCl)cc2)cc1	1.65 µM	> 100 µM	3600 nM	19.9 µM	11200 nM	> 100 µM	11200 nM	> 100 µM	16500 nM	> 100 µM	20100 nM	> 100 µM	3470 nM	16.3 µM	13800 nM	38.2 µM	7730 nM	99.7 µM	11.8 µM	59.8 µM
CN(CCCNC(=O)CCOCCOCCOCCNC(=O)Cc1ccc2ccc3cccc4ccc1c2c34)CCCNc1cc(-c2ccc3ccccc3c2)nc2ccccc12	0.629 µM	1.74 µM	561 nM	1.2 µM	130 nM	32.5 µM	1190 nM	2.81 µM	108 nM	0.419 µM	546 nM	1.06 µM	–	–	538 nM	1.18 µM	478 nM	0.908 µM	–	–
Cc1cc(N2CCN(C)CC2)n2nc(-c3ccc(Cl)cc3)nc2n1	–	> 100 µM	–	> 100 µM	–	> 100 µM	–	> 100 µM	–	> 100 µM	–	> 100 µM	–	> 100 µM	–	> 100 µM	–	> 100 µM	–	> 100 µM
COc1nnc2ccc(N3CCC(c4ccc(OCCN5CCN(C)C(=O)[C@H]5C)cc4)CC3)nn12	0.436 µM	> 100 µM	9880 nM	> 100 µM	72.3 nM	> 100 µM	86.9 nM	> 100 µM	39.2 nM	> 100 µM	75.1 nM	> 100 µM	15.9 nM	0.878 µM	106 nM	> 100 µM	187 nM	> 100 µM	0.0876 µM	> 100 µM
CN(CC(=O)N(Cc1ccc(C2CCCCC2)cc1)c1ccc(C(=O)O)cc1)S(=O)(=O)c1c(F)c(F)c(F)c(F)c1F	6.59 µM	21.6 µM	1740 nM	3.11 µM	1930 nM	3.68 µM	1740 nM	3.36 µM	2010 nM	4.11 µM	1900 nM	3.51 µM	1770 nM	3.65 µM	1810 nM	3.48 µM	2010 nM	3.71 µM	2.08 µM	4.46 µM
CN(C)C(=S)SCC(=O)Nc1ccccc1	–	> 100 µM	–	> 100 µM	–	> 100 µM	–	> 100 µM	–	> 100 µM	–	> 100 µM	–	> 100 µM	–	> 100 µM	–	> 100 µM	–	> 100 µM
CC[n+]1c(/C=C/C=C2\N(C)c3ccccc3C2(C)C)sc2ccccc21	4.77 µM	10 µM	4150 nM	7.76 µM	4150 nM	8.16 µM	4540 nM	9.67 µM	4740 nM	9.74 µM	4500 nM	10.3 µM	3800 nM	9.03 µM	3850 nM	7.19 µM	4640 nM	9.02 µM	4.68 µM	10.7 µM
CCOC(=O)COc1ccc2c(C)cc(=O)oc2c1	–	> 100 µM	–	> 100 µM	–	> 100 µM	–	> 100 µM	–	> 100 µM	–	> 100 µM	–	> 100 µM	–	> 100 µM	–	> 100 µM	–	> 100 µM
c1cc2c(cn1)Nc1ccncc1S2	32.8 µM	> 100 µM	44500 nM	> 100 µM	17900 nM	69.5 µM	37400 nM	> 100 µM	58000 nM	> 100 µM	98900 nM	> 100 µM	40400 nM	> 100 µM	> 100000 nM	> 100 µM	71500 nM	> 100 µM	–	–
CC1=C(C(=O)Nc2ccc(Cl)c(C(=O)OC(C)C)c2)SCCO1	–	65.8 µM	–	> 100 µM	–	> 77.4 µM	–	> 100 µM	–	50.8 µM	–	> 100 µM	–	69.9 µM	–	> 97.6 µM	–	> 89.8 µM	–	> 81.1 µM
Cc1cc([N+](=O)[O-])c2ccccc2[n+]1[O-]	0.245 µM and 0.204 µM	0.807 µM and 0.905 µM	73 nM and 81.5 nM	0.325 µM and 0.564 µM	47.2 nM and 40.7 nM	0.336 µM and 0.364 µM	185 nM and 213 nM	0.797 µM and 1.03 µM	66 nM and 94.8 nM	0.328 µM and 0.393 µM	218 nM and 202 nM	0.755 µM and 0.72 µM	739 nM and 303 nM	2.42 µM and 0.959 µM	2720 nM and 2610 nM	10.1 µM and 9.13 µM	1710 nM and 1490 nM	4.45 µM and 4.7 µM	2.58 µM and 3.26 µM	11.9 µM and 10.3 µM
COc1cccc(/C=C2\COc3ccc(-c4ccccc4)cc3C2=O)c1	3.17 µM	18.7 µM	2050 nM	5.43 µM	1680 nM	3.47 µM	1780 nM	4.72 µM	1700 nM	4.72 µM	2940 nM	7.61 µM	1860 nM	4.06 µM	2790 nM	7.63 µM	–	–	3.12 µM	8.39 µM
NC(=S)c1c(N)n(C2OC(CO)C(O)C2O)c2ncnc(N)c12 (centres undefined)	0.301 µM	> 100 µM	278 nM	> 100 µM	211 nM	–	57.3 nM	0.435 µM	147 nM	> 40.9 µM	333 nM	> 100 µM	188 nM	0.479 µM	264 nM	> 100 µM	729 nM	4.8 µM	–	–
CCOC(=O)c1cnc2c(C)cccc2c1Nc1ccc(C(C)=O)cc1	38.8 µM	> 100 µM	33300 nM	> 100 µM	14200 nM	> 100 µM	20700 nM	> 100 µM	19200 nM	> 100 µM	19700 nM	> 100 µM	14900 nM	> 100 µM	13500 nM	55.3 µM	79900 nM	> 100 µM	25.5 µM	> 100 µM
CN1C(=O)C2(c3ccccc31)N(c1ccc(Cl)cc1)C(=O)C2(c1ccccc1)c1ccccc1 (centres undefined)	18.5 µM	> 100 µM	99000 nM	> 100 µM	9570 nM	> 100 µM	> 100000 nM	> 100 µM	11000 nM	> 100 µM	13400 nM	> 100 µM	10000 nM	> 100 µM	5100 nM	> 100 µM	47600 nM	> 100 µM	> 100 µM	> 100 µM
O=C1NC(=NCCCc2ccccc2)S/C1=C\c1ccc2ncccc2c1	4.68 µM	13.8 µM	5890 nM	18 µM	3600 nM	14.1 µM	2900 nM	> 25 µM	6550 nM	> 21.4 µM	8120 nM	> 22.5 µM	4470 nM	9.17 µM	3720 nM	13.6 µM	6730 nM	22.9 µM	5.49 µM	14.1 µM
O=S(=O)(c1cnccc1N1CCN(CCO)CC1)N1CCCC1	–	> 100 µM	–	> 100 µM	–	> 100 µM	–	> 100 µM	–	> 100 µM	–	> 100 µM	–	> 100 µM	–	> 100 µM	–	> 100 µM	–	> 100 µM
CCCCCCCCCCCC[n+]1ccc2ccccc2c1	1.75 µM	3.38 µM	1180 nM	2.74 µM	857 nM	2.37 µM	2600 nM	13.8 µM	419 nM	2.14 µM	1280 nM	2.85 µM	410 nM	1.88 µM	486 nM	2.33 µM	405 nM	1.82 µM	0.413 µM	1.85 µM
C=CC(=O)N1CC2(CC(n3nc(-c4ccc5c(cnn5C)c4)c(-c4c(Cl)c(C)cc5[nH]ncc45)c3C)C2)C1	3.05 µM	12.5 µM	3110 nM	9.45 µM	1830 nM	3.74 µM	1540 nM	3.05 µM	3620 nM	29.5 µM	2540 nM	6.62 µM	2090 nM	5.15 µM	3520 nM	14.8 µM	2160 nM	6.57 µM	2.76 µM	8.18 µM
COC(=O)[C@H]1CCCN1C(=O)[C@H]1CCCN1C(=O)[C@H](Cc1c[nH]c2ccccc12)NC(=S)Nc1cc(C(F)(F)F)cc(C(F)(F)F)c1	4.08 µM	> 100 µM	6530 nM	> 100 µM	4270 nM	> 100 µM	6260 nM	> 100 µM	2950 nM	8.72 µM	2180 nM	5.25 µM	4490 nM	77.2 µM	6490 nM	> 100 µM	5870 nM	> 100 µM	6.97 µM	> 100 µM
C=C1C(=O)OC2/C=C(/C)C(OC(C)=O)C/C=C(\C)C(OC(=O)C3(C)OC3C)C(O)C12 (centres undefined)	–	> 100 µM	–	> 100 µM	–	> 100 µM	–	> 100 µM	–	> 100 µM	–	> 100 µM	–	28.6 µM	–	> 100 µM	–	> 100 µM	–	> 100 µM
O=C(CN1C(=O)S/C(=C\C(Cl)=C\c2ccccc2)C1=O)NC1C=CS(=O)(=O)C1 (centres undefined)	3 µM	> 100 µM	1830 nM	4.27 µM	377 nM	1.83 µM	378 nM	3.47 µM	1920 nM	6.72 µM	1440 nM	4.15 µM	299 nM	1.33 µM	2270 nM	17.4 µM	2180 nM	8.82 µM	1.31 µM	4.31 µM
CN1CCN(CCCOc2cccc3nc(Nc4ccc(Cl)c(C(F)(F)F)c4)ccc23)CC1	1.72 µM	3.66 µM	1810 nM	3.27 µM	1500 nM	2.84 µM	1220 nM	2.64 µM	–	–	1470 nM	3.1 µM	1830 nM	3.64 µM	2730 nM	7.45 µM	1720 nM	3.5 µM	1.85 µM	3.6 µM
CCN(CC)Cc1cc2[nH]c3c4ccc(Cl)cc4ncc3c2cc1OC	3.46 µM and 3.16 µM	13.3 µM and 10.5 µM	3000 nM and 2460 nM	9.18 µM and 6.38 µM	1850 nM and 1650 nM	5.92 µM and 3.15 µM	2050 nM and 2460 nM	8.66 µM and 6.94 µM	1780 nM and 1910 nM	5.6 µM and 4.82 µM	1830 nM and 1800 nM	7.16 µM and 4.51 µM	7160 nM and 2200 nM	17.7 µM and 4.97 µM	1900 nM and 1540 nM	4.33 µM and 3.4 µM	2790 nM and 1820 nM	6.92 µM and 3.45 µM	2.13 µM and 3.42 µM	12.4 µM and 13.6 µM
O=C(CC(Cl)=C(Cl)Cl)c1cccc(Cl)c1Cl	> 100 µM	> 100 µM	> 100000 nM	> 100 µM	42600 nM	> 100 µM	47800 nM	> 100 µM	75400 nM	> 100 µM	65600 nM	> 100 µM	36900 nM	> 100 µM	> 100000 nM	> 100 µM	> 100000 nM	> 100 µM	46.3 µM	> 100 µM
O=C1Cc2cc(C(=O)NC3C[C@H]4CC[C@@H](C3)N4S(=O)(=O)CC3CCN(CCCC(F)(F)F)CC3)c(Cl)cc2N1 (some centres undefined)	> 100 µM	> 100 µM	> 100000 nM	> 100 µM	> 100000 nM	> 100 µM	> 100000 nM	> 100 µM	> 100000 nM	> 100 µM	> 100000 nM	> 100 µM	> 100000 nM	> 100 µM	> 100000 nM	> 100 µM	> 100000 nM	> 100 µM	> 100 µM	> 100 µM
COC(=O)CSSCc1ccc([N+](=O)[O-])cc1	–	88.8 µM	–	50.7 µM	–	59.6 µM	–	48 µM	–	60.8 µM	–	46.8 µM	–	30.8 µM	–	–	–	98.4 µM	–	17.1 µM
